# Measurements: PubChem BioAssay (NCI)
# Values joined by “and” are separate entries in the source; they are usually repeats but may differ in a detail not shown here. Identical values can stand only once.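 Protocol summary: plate cells (96-well), add compound at 5 concentrations, incubate 48 h, interpolate endpoints linearly. The concentration for 50% growth inhibition is given as GI50. The concentration for full growth arrest is given as TGI.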
# What was measured:
# Assay in all cases: NCI anticancer screen, dose series, 48 h
# CCRF-CEM leukemia = system: CCRF-CEM leukemia
# MALME-3M melanoma = system: MALME-3M melanoma
# SF-268 CNS = system: SF-268 CNS
# EKVX NSCLC = system: EKVX NSCLC
# M19-MEL melanoma = system: M19-MEL melanoma
# 786-0 renal = system: 786-0 renal
# RPMI-8226 leukemia = system: RPMI-8226 leukemia
# SNB-19 CNS = system: SNB-19 CNS
# HCT-15 colon = system: HCT-15 colon
# SK-MEL-28 melanoma = system: SK-MEL-28 melanoma
# M14 melanoma = system: M14 melanoma
# SNB-78 CNS = system: SNB-78 CNS
# SK-OV-3 ovarian = system: SK-OV-3 ovarian
# HOP-62 NSCLC = system: HOP-62 NSCLC
# SK-MEL-2 melanoma = system: SK-MEL-2 melanoma
# LXFL 529 NSCLC = system: LXFL 529 NSCLC
# DMS 273 small cell lung = system: DMS 273 small cell lung
# A498 renal = system: A498 renal
# OVCAR-4 ovarian = system: OVCAR-4 ovarian
# OVCAR-5 ovarian = system: OVCAR-5 ovarian
# LOX IMVI melanoma = system: LOX IMVI melanoma
# DLD-1 colon = system: DLD-1 colon
# UACC-62 melanoma = system: UACC-62 melanoma
# U251 CNS = system: U251 CNS
# IGROV1 ovarian = system: IGROV1 ovarian
# SW-620 colon = system: SW-620 colon
# ACHN renal = system: ACHN renal
# SF-295 CNS = system: SF-295 CNS
# NCI-H23 lung = system: NCI-H23 lung
# COLO 205 colon = system: COLO 205 colon
# A549 NSCLC = system: A549 NSCLC
# SNB-75 CNS = system: SNB-75 CNS
# OVCAR-8 ovarian = system: OVCAR-8 ovarian
# RXF 393 renal = system: RXF 393 renal
# NCI-H522 lung = system: NCI-H522 lung
# OVCAR-3 ovarian = system: OVCAR-3 ovarian
# SN12C renal = system: SN12C renal
# HCC-2998 colon = system: HCC-2998 colon
# NCI-H226 lung = system: NCI-H226 lung
# HT29 colon = system: HT29 colon
# KM12 colon = system: KM12 colon
# SF-539 CNS = system: SF-539 CNS
# SR leukemia = system: SR leukemia
# SK-MEL-5 melanoma = system: SK-MEL-5 melanoma
# TK-10 renal = system: TK-10 renal
# UACC-257 melanoma = system: UACC-257 melanoma
# XF 498 CNS = system: XF 498 CNS
# UO-31 renal = system: UO-31 renal
# HL-60(TB) leukemia = system: HL-60(TB) leukemia
# K-562 leukemia = system: K-562 leukemia
# DMS 114 small cell lung = system: DMS 114 small cell lung
# NCI-H460 lung = system: NCI-H460 lung
# MOLT-4 leukemia = system: MOLT-4 leukemia
# T-47D breast = system: T-47D breast
# HOP-92 NSCLC = system: HOP-92 NSCLC
# MDA-MB-231 breast = system: MDA-MB-231 breast
# MCF7 breast = system: MCF7 breast
# HS 578T breast = system: HS 578T breast
# MDA-MB-435 = system: MDA-MB-435
# BT-549 breast = system: BT-549 breast
# DU-145 prostate = system: DU-145 prostate
# HCT-116 colon = system: HCT-116 colon
# NCI/ADR-RES ovarian = system: NCI/ADR-RES ovarian
# PC-3 prostate = system: PC-3 prostate
# CAKI-1 renal = system: CAKI-1 renal
# MDA-N = system: MDA-N
# KM20L2 colon = system: KM20L2 colon
smiles,measurement,setting,value
CCC(Oc1ccc(OC)c2c1C(=O)CCC2)C(=O)O (stereo not given),TGI,CCRF-CEM leukemia,> 100 µM
same,TGI,MALME-3M melanoma,> 100 µM
same,TGI,SF-268 CNS,> 100 µM
same,TGI,EKVX NSCLC,> 100 µM
same,TGI,M19-MEL melanoma,> 100 µM
same,TGI,786-0 renal,> 100 µM
same,TGI,RPMI-8226 leukemia,> 100 µM
same,TGI,SNB-19 CNS,> 100 µM
same,TGI,HCT-15 colon,> 100 µM
same,TGI,SK-MEL-28 melanoma,> 100 µM
same,TGI,M14 melanoma,> 100 µM
same,TGI,SNB-78 CNS,> 100 µM
same,TGI,SK-OV-3 ovarian,> 100 µM
same,TGI,HOP-62 NSCLC,> 100 µM
same,TGI,SK-MEL-2 melanoma,> 100 µM
same,TGI,LXFL 529 NSCLC,> 100 µM
same,TGI,DMS 273 small cell lung,> 100 µM
same,TGI,A498 renal,> 100 µM
same,TGI,OVCAR-4 ovarian,> 100 µM
same,TGI,OVCAR-5 ovarian,> 100 µM
same,TGI,LOX IMVI melanoma,> 100 µM
same,TGI,DLD-1 colon,> 100 µM
same,TGI,UACC-62 melanoma,> 100 µM
same,TGI,U251 CNS,> 100 µM
same,TGI,IGROV1 ovarian,> 100 µM
same,TGI,SW-620 colon,> 100 µM
same,TGI,ACHN renal,> 100 µM
same,TGI,SF-295 CNS,> 100 µM
same,TGI,NCI-H23 lung,> 100 µM
same,TGI,COLO 205 colon,> 100 µM
same,TGI,A549 NSCLC,> 100 µM
same,TGI,SNB-75 CNS,> 100 µM
same,TGI,OVCAR-8 ovarian,> 100 µM
same,TGI,RXF 393 renal,> 100 µM
same,TGI,NCI-H522 lung,> 100 µM
same,TGI,OVCAR-3 ovarian,> 100 µM
same,TGI,SN12C renal,> 100 µM
same,TGI,HCC-2998 colon,> 100 µM
same,TGI,NCI-H226 lung,> 100 µM
same,TGI,HT29 colon,> 100 µM
same,TGI,KM12 colon,> 100 µM
same,TGI,SF-539 CNS,> 100 µM
same,TGI,SR leukemia,> 100 µM
same,TGI,SK-MEL-5 melanoma,> 100 µM
same,TGI,TK-10 renal,> 100 µM
same,TGI,UACC-257 melanoma,> 100 µM
same,TGI,XF 498 CNS,> 100 µM
same,TGI,UO-31 renal,> 100 µM
same,TGI,HL-60(TB) leukemia,> 100 µM
same,TGI,K-562 leukemia,> 100 µM
same,TGI,DMS 114 small cell lung,> 100 µM
same,TGI,NCI-H460 lung,> 100 µM
same,TGI,MOLT-4 leukemia,> 100 µM
OCCN1CCN(c2nc(N3CCCC3)c3nc(Cl)c(NCc4ccccc4)nc3n2)CC1,TGI,T-47D breast,17.4 µM
same,TGI,CCRF-CEM leukemia,11.7 µM
same,TGI,MALME-3M melanoma,11.7 µM
same,TGI,SF-268 CNS,23.2 µM
same,TGI,EKVX NSCLC,25 µM
same,TGI,786-0 renal,4.23 µM
same,TGI,RPMI-8226 leukemia,8.35 µM
same,TGI,SNB-19 CNS,21.3 µM
same,TGI,HCT-15 colon,7.91 µM
same,TGI,SK-MEL-28 melanoma,9.08 µM
same,TGI,HOP-92 NSCLC,16.8 µM
same,TGI,M14 melanoma,7.24 µM
same,TGI,MDA-MB-231 breast,25 µM
same,TGI,SK-OV-3 ovarian,27.5 µM
same,TGI,HOP-62 NSCLC,8.98 µM
same,TGI,SK-MEL-2 melanoma,16.8 µM
same,TGI,MCF7 breast,17.2 µM
same,TGI,A498 renal,25 µM
same,TGI,OVCAR-4 ovarian,25.4 µM
same,TGI,OVCAR-5 ovarian,26.6 µM
same,TGI,LOX IMVI melanoma,10.6 µM
same,TGI,UACC-62 melanoma,9.26 µM
same,TGI,U251 CNS,18.2 µM
same,TGI,HS 578T breast,31 µM
same,TGI,IGROV1 ovarian,23.1 µM
same,TGI,SW-620 colon,17.5 µM
same,TGI,ACHN renal,20.7 µM
same,TGI,MDA-MB-435,10.7 µM
same,TGI,SF-295 CNS,13.4 µM
same,TGI,NCI-H23 lung,29.4 µM
same,TGI,BT-549 breast,20.7 µM
same,TGI,COLO 205 colon,6.73 µM
same,TGI,DU-145 prostate,23.6 µM
same,TGI,A549 NSCLC,21.4 µM
same,TGI,SNB-75 CNS,8.67 µM
same,TGI,OVCAR-8 ovarian,23.5 µM
same,TGI,RXF 393 renal,3.68 µM
same,TGI,HCT-116 colon,17.6 µM
same,TGI,NCI/ADR-RES ovarian,26.7 µM
same,TGI,NCI-H522 lung,18.7 µM
same,TGI,OVCAR-3 ovarian,23.5 µM
same,TGI,SN12C renal,24.2 µM
same,TGI,HCC-2998 colon,3.56 µM
same,TGI,NCI-H226 lung,37.8 µM
same,TGI,HT29 colon,10.6 µM
same,TGI,PC-3 prostate,22.8 µM
same,TGI,KM12 colon,15.8 µM
same,TGI,SF-539 CNS,13.6 µM
same,TGI,SR leukemia,15.2 µM
same,TGI,SK-MEL-5 melanoma,7.82 µM
same,TGI,TK-10 renal,19.2 µM
same,TGI,UACC-257 melanoma,9.79 µM
same,TGI,UO-31 renal,11.5 µM
same,TGI,HL-60(TB) leukemia,11.8 µM
same,TGI,CAKI-1 renal,23.7 µM
same,TGI,MDA-N,8.47 µM
same,TGI,K-562 leukemia,22 µM
same,TGI,NCI-H460 lung,18.1 µM
same,TGI,MOLT-4 leukemia,15.3 µM
COc1cccc(/C=N/[N-]C(N)=O)c1[O-].[Cu+2].[OH3+],TGI,MALME-3M melanoma,28.8 µM
same,TGI,SF-268 CNS,32.9 µM
same,TGI,EKVX NSCLC,34.9 µM
same,TGI,786-0 renal,30.3 µM
same,TGI,RPMI-8226 leukemia,> 100 µM
same,GI50,SNB-19 CNS,14.9 µM
same,TGI,SNB-19 CNS,8.97 µM and 28.5 µM
same,TGI,HCT-15 colon,27.2 µM
same,TGI,SK-MEL-28 melanoma,27.8 µM
same,GI50,HOP-92 NSCLC,4.77 µM
same,TGI,HOP-92 NSCLC,8.9 µM and 15.5 µM
same,TGI,HOP-62 NSCLC,44.3 µM
same,TGI,SK-MEL-2 melanoma,31.3 µM
same,TGI,A498 renal,32.2 µM
same,TGI,OVCAR-4 ovarian,32.3 µM
same,TGI,OVCAR-5 ovarian,32.6 µM
same,TGI,LOX IMVI melanoma,30.6 µM
same,GI50,U251 CNS,7.38 µM
same,TGI,U251 CNS,19.7 µM
same,GI50,IGROV1 ovarian,6.14 µM
same,TGI,IGROV1 ovarian,19.6 µM
same,TGI,SW-620 colon,27.3 µM
same,TGI,ACHN renal,24.8 µM
same,TGI,KM20L2 colon,20.6 µM
same,TGI,SF-295 CNS,28.9 µM
same,GI50,NCI-H23 lung,9.7 µM
same,TGI,NCI-H23 lung,21.9 µM
same,GI50,COLO 205 colon,9.49 µM
same,TGI,COLO 205 colon,> 100 µM
same,TGI,SNB-75 CNS,25.1 µM
same,GI50,OVCAR-8 ovarian,10.7 µM
same,TGI,OVCAR-8 ovarian,24.4 µM
same,TGI,RXF 393 renal,36.2 µM
same,GI50,HCT-116 colon,4.09 µM
same,TGI,HCT-116 colon,15.9 µM
same,GI50,OVCAR-3 ovarian,10.4 µM
same,TGI,OVCAR-3 ovarian,22.8 µM
same,TGI,SN12C renal,27.2 µM
same,TGI,HCC-2998 colon,31 µM
same,TGI,NCI-H226 lung,31.3 µM
same,GI50,HT29 colon,9.17 µM
same,TGI,HT29 colon,21.3 µM
same,TGI,KM12 colon,28 µM
same,TGI,SF-539 CNS,33.5 µM
same,GI50,SR leukemia,5.67 µM
same,TGI,SR leukemia,43.9 µM
same,TGI,UACC-257 melanoma,28.5 µM
same,GI50,XF 498 CNS,15.9 µM
same,TGI,XF 498 CNS,29.4 µM
same,TGI,UO-31 renal,31.7 µM
same,GI50,HL-60(TB) leukemia,10.8 µM
same,TGI,HL-60(TB) leukemia,> 100 µM
same,GI50,K-562 leukemia,5.7 µM
same,TGI,K-562 leukemia,45.2 µM
same,TGI,NCI-H460 lung,36 µM
same,GI50,MOLT-4 leukemia,10.1 µM
same,TGI,MOLT-4 leukemia,38.3 µM
CCCCCCC(=O)OC[n+]1ccc2c(C)c3[nH]c4ccc(OC)cc4c3c(C)c2c1,TGI,T-47D breast,11.5 µM
same,TGI,CCRF-CEM leukemia,1.63 µM
same,TGI,MALME-3M melanoma,14.2 µM
same,TGI,RPMI-8226 leukemia,2.1 µM
same,TGI,HCT-15 colon,1.24 µM
same,TGI,HOP-92 NSCLC,3.49 µM
same,TGI,MDA-MB-231 breast,2.36 µM
same,TGI,SK-OV-3 ovarian,3.83 µM
same,TGI,SK-MEL-2 melanoma,9.35 µM
same,TGI,MCF7 breast,1.75 µM
same,TGI,A498 renal,2.02 µM
same,TGI,OVCAR-5 ovarian,2.75 µM
same,TGI,LOX IMVI melanoma,1.5 µM
same,TGI,IGROV1 ovarian,3.83 µM
same,TGI,SW-620 colon,1.78 µM
same,TGI,ACHN renal,4.88 µM
same,TGI,MDA-MB-435,1.79 µM
same,TGI,KM20L2 colon,5.32 µM
same,TGI,SF-295 CNS,1.59 µM
same,TGI,COLO 205 colon,1.34 µM
same,TGI,DU-145 prostate,3.59 µM
same,TGI,A549 NSCLC,1.88 µM
same,TGI,OVCAR-8 ovarian,2.12 µM
same,TGI,OVCAR-3 ovarian,4.84 µM
same,TGI,SN12C renal,1.91 µM
same,TGI,HCC-2998 colon,2.68 µM
same,TGI,PC-3 prostate,1.51 µM
same,TGI,SF-539 CNS,1.67 µM
same,TGI,SR leukemia,3.46 µM
same,TGI,TK-10 renal,10.4 µM
same,TGI,UO-31 renal,5.48 µM
same,TGI,HL-60(TB) leukemia,1.7 µM
same,TGI,CAKI-1 renal,6.69 µM
same,TGI,MDA-N,1.59 µM
same,TGI,K-562 leukemia,1.31 µM
same,TGI,NCI-H460 lung,1.02 µM
